Source: US20230076527A1, “TREATMENT OF PAROXYSMAL NOCTURNAL HEMOGLOBINURIA” (Apellis Pharmaceuticals, Inc., priority 2020, published 2023)
Several values for one entry are separate records, joined by “and”; a condition that tells them apart may be missing. Equal values may be shown once.

How the values were obtained:
patients with PNH [1] = assay: PEGASUS Phase 3 trial, 16-week randomized controlled period: hematologic and fatigue efficacy endpoints; format: in vivo, human; conditions: for non-inferiority to eculizumab on absolute reticulocyte count / non-inferiority to eculizumab on transfusion avoidance: key secondary endpoint; for non-inferiority to eculizumab on absolute reticulocyte count: margin 10; for non-inferiority to eculizumab on transfusion avoidance: margin -20%
Text: The PEGASUS trial protocol consisted of an 8-week screening period, a 52-week treatment period, and a 12-week follow up period.
The treatment period consisted of three parts: a 4-week run-in period, a 16-week Randomized Controlled Period and a 32-week open-label Study Drug only period.
During the Randomized Controlled Period, subjects returned to the clinical site at Weeks 1, 2, 4, 6, 8, 12 and 16 for efficacy and safety assessments.
The primary endpoint in the study was an increase in hemoglobin level from baseline to Week 16 (excluding data before the Randomized Controlled Period). Key secondary endpoints included transfusion avoidance, reduction in reticulocyte count, reduction in LDH level, and changes in Functional Assessment of Chronic Illness Therapy (FACIT)-fatigue scale score, Version 4. […] Hierarchical significance testing for secondary efficacy endpoints was gated on the success of the primary efficacy endpoint. Post hoc analyses included hemoglobin stabilization (defined as avoidance of a >1 g/dL decrease from baseline) in the absence of transfusions and hematologic response to treatment.
The between-treatment group comparison for the primary efficacy endpoint was performed using a mixed effect model for repeated measures (MMRM) (Mallinckrodt, DID 42:30 (2008)). The model included fixed categorical effects for treatment group, study visit, stratification variables (based on transfusion history and platelet count) and the study visit-bytreatment group interaction, as well as the continuous, fixed covariate of baseline Hb level.
The number and percentage of subjects with transfusion avoidance were tabulated by treatment group and compared between treatment groups using a stratified Cochran-Mantel Haenszel (CMH) chi-square test. The treatment difference in percentages and 95% confidence interval for the difference were presented using the stratified method (Miettinen, Statistics in Medicine 4:213-226 (1985)).
The change from baseline at Week 16 in reticulocyte count, LDH level and FACIT-fatigue scale score were analyzed using the same methods described for the primary analysis of the primary efficacy endpoint except using their own baseline as a covariate, using the ITT and mITT sets.
For any subject who discontinued study treatment, any values collected after discontinuation continued to be used in analyses (Treatment Policy).
Additionally, the primary endpoint of hemoglobin change from baseline (before first dose of pegcetacoplan) to week 16 and secondary endpoints (transfusion avoidance, change from baseline at week 16 in absolute reticulocyte count and lactate dehydrogenase) were analyzed by subgroups based on number of packed red blood cell transfusions (<4 vs ≥4) within the 12 months prior to Day -28 and platelet count at screening (<100,000 /mm^3 vs >100,000 /mm^3).

PNH Type II + III RBCs = assay: PEGASUS pharmacodynamics: C3 loading and clone size of PNH red blood cells; format: in vivo, human; conditions: week 16 versus baseline
Text: FIGS. 9B and 9C includes descriptive analysis of observed values, based only on those subjects who had both baseline and week 16 data.

patients with PNH [2] = assay: PEGASUS post hoc hematologic response categorization; format: in vivo, human; conditions: 16 weeks
Text: Complete response: no transfusions required, stable Hb in the normal range, and no evidence of hemolysis (i.e., LDH ≤1.5× upper limit of normal [ULN], ARC ≤150,000 /µL). Major response: no transfusion, normal Hb, but with evidence of hemolysis (LDH >1.5×ULN and/or ARC >150,000 /µL). Good response: no transfusion, but with chronic mild anemia or evidence of hemolysis. Partial response: chronic moderate anemia and/or occasional transfusions (<3 units/6 months). Minor response: regular transfusions required (3-6 units/6 months). No response: regular and frequent transfusions required (>6 units/6 months).

[3] = tested on: patients with PNH previously treated with eculizumab; assay: Matching-adjusted indirect comparison of pegcetacoplan (PEGASUS) versus ravulizumab (302 study); format: in vivo, human; conditions: PEGASUS Week 16 vs 302 study Week 26, after matching
Text: Both studies share similar eligibility criteria. However, PEGASUS also required patients to have hemoglobin <10.5 g/dL and absolute reticulocyte count >1.0x the upper limit of normal; these criteria were not applicable in the 302 study. To adjust for cross-study differences in baseline characteristics, propensity score weighting was utilized to balance baseline demographic and clinical characteristics. Outcomes assessed included: transfusion avoidance, total number of units of packed red blood cells (PRBCs) transfused, hemoglobin stabilization, and change in Functional Assessment of Chronic Illness Therapy (FACIT)-Fatigue score. Outcomes were assessed from PEGASUS at Week 16 and from the 302 study at Week 26. Unadjusted mean and least squares mean change in FACIT-Fatigue score were compared for PEGASUS and the 302 study, respectively. Weighted Wald tests and 95% confidence intervals (CIs) were computed for comparisons of categorical and continuous outcomes (i.e., chi square and z tests, respectively).

patients with PNH [4] = assay: PEGASUS 48-week safety; conditions: 48-week study
[5] = week 16, <4 transfusions stratum
[6] = week 16, <100,000 /mm^3 platelet stratum
[7] = week 16, censored for transfusion
[8] = week 16, ≥4 transfusions stratum
[9] = week 16, ≥100,000 /mm^3 platelet stratum

Poly(oxy-1,2-ethanediyl), α-hydro-ω-hydroxy-, 15,15ʹ -diester with N-acetyl-L-isoleucyl-L-cysteinyl-L-valyl-1-methyl-L-tryptophyl-L-glutaminyl-L-α-aspartyl-L-tryptophylglycyl-L-alanyl-L-histidyl-L-arginyl-L-cysteinyl-L-threonyl-2-[2-(2-aminoethoxy)ethoxy]acetyl-N^6-carboxy-L-lysinamide cyclic (2-->12)-(disulfide) [pegcetacoplan]
patients achieving at least a three-point improvement in FACIT-fatigue score (patients with PNH [1]; 16 weeks): 73%
patients achieving reticulocyte normalization (patients with PNH [1]; 16 weeks, 30-120 × 10^9 cells/L): 78%
patients achieving LDH normalization (patients with PNH [1]; 16 weeks, normal range 113-226 U/L): 71%
transfusion avoidance, adjusted risk difference versus eculizumab (patients with PNH [1]; <4 transfusions group, 95% CI 26.2%-81.3%): 53.8%
FACIT-fatigue score, adjusted mean change from baseline to Week 16 (patients with PNH [1]; MMRM): 9.2
absolute reticulocyte count, adjusted mean decrease from baseline to week 16 (patients with PNH [1]; baseline 217×10^9 /L): 1.35e+11 L⁻¹
non-inferiority to eculizumab on absolute reticulocyte count (patients with PNH [1]): Non-inferiority was met
non-inferiority to eculizumab on absolute reticulocyte count (patients with PNH [1]; listed as Pegcetacoplan): met non-inferiority
non-inferiority to eculizumab on transfusion avoidance (patients with PNH [1]): Non-inferiority was met
non-inferiority to eculizumab on transfusion avoidance (patients with PNH [1]; listed as Pegcetacoplan): met non-inferiority
subjects who required transfusions post randomization (patients with PNH [1]; out of 41 (pegcetacoplan group), out of 39 (eculizumab group)): 6 subjects
proportion of transfusion-free patients (patients with PNH [1]; over 16 weeks, <4 transfusions within 12 months prior to Day -28): 85%
transfusion avoidance (transfusion-free patients) (patients with PNH [1]; over 16 weeks, all patients): 85.4% and 85%
proportion of transfusion-free patients (patients with PNH [1]; over 16 weeks, platelet stratum <100,000 /mm^3): 83.3%
proportion of transfusion-free patients (patients with PNH [1]; over 16 weeks, platelet stratum ≥100,000 /mm^3): 86.2%
proportion of transfusion-free patients (patients with PNH [1]; over 16 weeks, ≥4 transfusions within 12 months prior to Day -28): 85.7% and 86%
transfusion avoidance, adjusted risk difference versus eculizumab (patients with PNH [1]; overall patients, 95% CI 48.3%-76.8%): 62.5%
hemoglobin higher than the eculizumab arm (patients with PNH [1]; week 16): 53%
mean hemoglobin change from baseline regardless of baseline platelet count strata (patients with PNH [1]; week 16): significantly increased
LDH LS mean change from baseline (patients with PNH [1]; [5]): -52.31 U/L
absolute reticulocyte count LS mean change from baseline (patients with PNH [1]; [5]): -152.59 × 10^9 cells/L
LDH LS mean change from baseline (patients with PNH [1]; [6]): -73.14 U/L
absolute reticulocyte count LS mean change from baseline (patients with PNH [1]; [6]): -147.17 × 10^9 cells/L
adjusted mean hemoglobin change from baseline (patients with PNH [1]; week 16, all patients, baseline 8.7 g/dL, post-transfusion data excluded): 2.4 g/dL
proportion of patients achieving hemoglobin normalization (patients with PNH [1]; [7]): 34%
proportion of patients achieving ≥2 g/dL improvement in hemoglobin (patients with PNH [1]; [7]): 61%
proportion of patients achieving hemoglobin stabilization (patients with PNH [1]; week 16, censored for transfusion, avoidance of >1 g/dL decrease from baseline): 85%
adjusted mean hemoglobin change from baseline (patients with PNH [1]; week 16, fewer than 4 transfusions within 12 months prior to Day -28, baseline 8.9 g/dL): 2.97 g/dL
indirect bilirubin level (patients with PNH [1]; week 16, including post-transfusion data): 13.8 µmol/L
non-inferiority to eculizumab in the change from baseline in LDH (patients with PNH [1]; week 16, margin 20): did not demonstrate non-inferiority
mean FACIT-fatigue score (patients with PNH [1]; week 16, observed data, baseline 32.2 (pegcetacoplan), 31.6 (eculizumab)): 41.8 (SD 9.61)
improvement in adjusted means of hemoglobin versus eculizumab (patients with PNH [1]; week 16, p<0.0001, MMRM): 3.8 g/dL
LDH LS mean change from baseline (patients with PNH [1]; [8]): -54.99 U/L
absolute reticulocyte count LS mean change from baseline (patients with PNH [1]; [8]): -124.75 × 10^9 cells/L
LDH LS mean change from baseline (patients with PNH [1]; [9]): -41.96 U/L
absolute reticulocyte count LS mean change from baseline (patients with PNH [1]; [9]): -137.28 × 10^9 cells/L
LDH adjusted mean change from baseline (patients with PNH [1]; week 16, baseline 258 U/L (pegcetacoplan), 309 U/L (eculizumab)): -15 U/L
transfusion avoidance, adjusted risk difference versus eculizumab (patients with PNH [1]; ≥4 transfusions group, 95% CI 64.2%-98.5%): 81.4%
C3 loading on Type III RBCs (PNH Type II + III RBCs): decreased
PNH clone size (Type II + III) (PNH Type II + III RBCs): increased
complete hematologic responses (patients with PNH [2]; ITT): 39%
good hematologic responses (patients with PNH [2]; ITT): 31.7%
minor hematologic responses (patients with PNH [2]; ITT): 4.9%
no hematologic response (patients with PNH [2]; ITT): 0%
partial hematologic responses (patients with PNH [2]; ITT): 14.6%
patients achieving at least a good hematological response (patients with PNH [2]; 29/41 pegcetacoplan, 2/39 eculizumab): 70.7%
comparative effectiveness versus ravulizumab (MAIC, anchored on eculizumab) [3]: improvement in transfusion avoidance, hemoglobin stabilization, and fatigue, and a reduction in the total number of units of PRBCs transfused
cases of meningitis (patients with PNH [4]): No cases
diarrhea (patients with PNH [4]): 21%
discontinuations due to hemolysis (patients with PNH [4]): five
hemolysis (adverse event) (patients with PNH [4]): 24%
injection site reactions (patients with PNH [4]): 36%
patients who experienced a serious adverse event (patients with PNH [4]; 24 of 80 pegcetacoplan monotherapy-treated patients): 30%
deaths (patients with PNH [4]; due to COVID-19, unrelated to study treatment): One death
SAEs assessed to be possibly related to study treatment (patients with PNH [4]; five of the SAEs): 6%
patients who discontinued due to adverse events (patients with PNH [4]; twelve out of 80 patients): 15%
